{"source": "patent US20230414634A1", "about": "“METHODS FOR TREATING CHOLESTATIC PRURITUS” (GlaxoSmithKline Intellectual Property (No.2) Limited, priority 2020, published 2023)", "key": {"[1]": {"test_system": "PBC patients with pruritus", "experiment": "Phase 2a crossover clinical study BAT117213 (NCT01899703) of GSK672 versus placebo", "assay_type": "in vivo, human", "protocol": "A Phase 2a clinical study (NCT01899703; GSK study BAT117213) was carried out to investigate the safety, tolerability, and effect of repeat doses of GSK672 administration in patients with cholestatic pruritus in Primary Biliary Cholangitis (PBC). The results of this study have been summarized and published on clintrials.gov (NCT01899703).\nA phase 2 double-blind, randomised, placebo controlled, crossover trial in PBC patients with pruritus was conducted at two specialist PBC centres in the United Kingdom between March 2014 and November 2015. Subjects received oral 45 to 90 mg GSK672 (45 mg BID for Day 1 to 3 and 90 mg BID for Days 4 to 14) and placebo twice daily for 14 days, in a crossover sequence.\nThe three different itch rating scales were employed: 10-point NRS, 5D Itch Scale and PBC-40.\nThe primary end point was safety (measured by clinical and laboratory assessments and adverse events (AEs)) and tolerability. Secondary end points were: i) changes in pruritus scores from baseline measured using a 0 to 10 numerical rating scale (NRS) completed twice daily and PBC-40 itch domain scores and 5-D itch scale and ii) changes in serum levels of total bile acids and C4. Serum levels of ATX activity and FGF-19 were measured at baseline and at the end of each treatment period.\nAn analysis was carried out as to the effect of 90 mg BID. No analysis was carried out as to the effect of 45 mg BID as this dose was administered for Days 1 to 3 in order to ease patients onto the higher 90 mg BID dose."}, "[2]": {"test_system": "patients with PBC and cholestatic pruritus", "experiment": "GLIMMER Phase 2b study (NCT02966834): itch efficacy and PBC-40 quality of life", "assay_type": "in vivo, human", "settings": "for mean increase in itch responder days: difference from placebo, 12 weeks' treatment", "source_text": "Measurement of Itch (pruritus)—10 Point Numerical Rating Scale (NRS) • Itch Score: itch scores recorded by study participants twice daily; a 0-10 Numerical Rating Scale (NRS) is used to assess itch with a response option of 0 representing no itching and 10 the worst imaginable itching • Worst Daily Itch Score: the worst of two itch scores recorded by a patient daily is considered the score for that day (i.e. the most severe (highest) NRS recorded on a given day) • Mean Worst Daily Itch Score (Weekly Itch Score [WIS]): the average of the Worst Daily Itch Scores in one week (7 days) • Monthly Itch Score (MIS): the worst Mean Worst Daily Itch Score for that month (i.e., worst week score of the 4 weeks) • Itch Response: for example, ≥2-point improvement in mean Worst Daily Itch Score from Baseline • Itch Responder Days: days when the Itch Response definition is met (i.e. days with an Itch Response) • Itch Severity: measured using 0-10 NRS; moderate to severe is ≥4 NRS • Baseline (itch score at the end of the placebo period before treatment,) is the average of the itch scores in the 7 days prior to randomisation (in Example 2, prior to randomisation at Week 4) • Change from Baseline was calculated as the post-Baseline value minus the Baseline value.\nGLIMMER trial: Phase 2b study (NCT02966834; GSK study 201000). A randomized, double-blind, placebo-controlled study of linerixibat, an inhibitor of the ileal bile acid transporter, in the treatment of cholestatic pruritus in primary biliary cholangitis, for patients with PBC and pruritus.\nThe twice daily patient-reported 0-10 Numerical Rating Scale (NRS) worst itch assessment was employed, with the worst value from each day used to calculate the mean worst daily itch, which was then used to assess change in pruritus. This measure has independent content validity in PBC; similar measures are psychometrically valid and have been used to determine changes in itch intensity in PBC.\nPatients with PBC with pruritus (≥4 on 0-10 numeric rating scale [NRS]) were enrolled; double-blind treatment was preceded and followed by 4 weeks' single-blind placebo.\nAt Week 4, patients with NRS ≥3 were randomized,(4:1) to double-blind linerixibat or placebo for 12 weeks (to Week 16), followed by single-blind placebo (to Week 20).\nPrimary endpoint: mean change from baseline in mean Worst Daily Itch Score at Week 16. Participants were required to score the severity of their itching using the 0-10 NRS, from which the Worst Daily Itch Score is obtained, and the Mean Worst Daily Itch score was calculated as the average of the worst daily itch scores provided in the 7 days prior to the Week 16 visit. Baseline is the average of the scores in the 7 days prior to the Week 4, and the Change from Baseline was calculated. Analysis was done using Analysis of covariance (ANCOVA) including treatment group and centered Mean Worst Daily Itch score at Baseline.\nSecondary and exploratory endpoints: itch efficacy, quality of life (PBC-40) and pharmacodynamic biomarkers, and safety and tolerability.\nAd hoc endpoint: change from baseline itch compared with Monthly Itch Score over the main study period.\nDue to the potential fluctuation of itch over time, an additional post-hoc analysis was conducted on the primary endpoint according to the FDA preferred approach to evaluate the effect over the entire 12 weeks treatment duration using Monthly Itch Score. A mixed model repeated measures (or mixed-effect repeated measure model) (MMRM) analysis estimated the effect of linerixibat comparing to placebo over the entire 12 weeks treatment duration."}}, "data": [{"smiles": "CCCC[C@]1(CC)CS(=O)(=O)c2cc(CNC(CC(=O)O)CC(=O)O)c(OC)cc2[C@@H](c2ccccc2)N1", "note": "[linerixibat]", "values": [{"measurement": "pruritus severity compared to placebo (NRS, 5D Itch Scale and PBC-40)", "setting": "[1]; 90 mg BID, 22 subjects with PBC pruritus", "value": "statistically significant decrease"}, {"measurement": "reduction in itch intensity as compared to placebo", "setting": "[1]; 90 mg BID, 14 day crossover", "value": 71, "unit": "%"}, {"measurement": "itch intensity, PBC-40 itch domain, compared to placebo", "setting": "[1]; 90 mg BID, 95% CI: −0.94 to −0.24", "value": "−0.59"}, {"measurement": "itch intensity, 5-D itch, compared to placebo", "setting": "[1]; 90 mg BID, 95% CI: −6.60 to −2.49", "value": "−4.55"}, {"measurement": "itch intensity as measured by NRS, compared to placebo", "setting": "[1]; 90 mg BID, 95%CI: −2.48 to −0.68", "value": "−1.58"}, {"measurement": "fatigue, sleep disturbance and overall disability compared to placebo", "setting": "[1]; human, in vivo", "value": "Decreases"}, {"measurement": "time at which reduction of pruritus severity occurred", "setting": "[1]; human, in vivo", "value": "within the first week"}, {"measurement": "tolerability", "setting": "[1]; two weeks of oral twice daily 90 mg", "value": "well tolerated"}, {"measurement": "responder days vs placebo", "setting": "[2]; 40 mg BID and 90 mg BID", "value": "Significantly more"}, {"measurement": "Mean Worst Daily Itch Score of patients with moderate to severe itch at baseline, versus placebo", "setting": "[2]; 40 mg BID, 12 weeks treatment", "value": "Significant difference"}, {"measurement": "PBC-40 emotional domain, LS Mean difference vs placebo", "setting": "[2]; 40 mg BID, 95% CI: −1.9, 0.3", "value": "−0.8"}, {"measurement": "PBC-40 social domain, LS Mean difference vs placebo", "setting": "[2]; 40 mg BID, 95% CI: −4.8, 0.1", "value": "−2.4"}, {"measurement": "mean increase in itch responder days", "setting": "[2]; 40 mg BID", "value": 20, "unit": "%"}, {"measurement": "LS Mean Change from Baseline vs Placebo in Monthly Itch Score over 12 weeks treatment (MMRM, post-hoc)", "setting": "[2]; 40 mg BID, p=0.011", "value": -1.16}, {"measurement": "Monthly Itch Score, improvement from baseline over 12 weeks treatment", "setting": "[2]; 40 mg and 90 mg BID, 180 mg QD", "value": "Significant improvement"}, {"measurement": "mean increase in itch responder days", "setting": "[2]; 90 mg BID", "value": 27, "unit": "%"}, {"measurement": "LS Mean Change from Baseline vs Placebo in Monthly Itch Score over 12 weeks treatment (MMRM, post-hoc)", "setting": "[2]; 90 mg BID, p=0.037", "value": "−0.95"}, {"measurement": "LS Mean Change from Baseline vs Placebo in Monthly Itch Score over 12 weeks treatment (MMRM, post-hoc)", "setting": "[2]; 180 mg QD, p=0.042", "value": "−0.90"}, {"measurement": "pre-specified primary endpoint: dose response across dose ranges", "setting": "[2]; ITT and per protocol populations", "value": "could not be established"}, {"measurement": "mean Worst Daily Itch Score", "setting": "[2]; all linerixibat doses", "value": "rapid improvement"}, {"measurement": "PBC-40 itch domain, change from baseline after 12 weeks", "setting": "[2]; all treatment groups including placebo, p≤0.05", "value": "significant improvement"}]}]}
